The target in assay [1] is T1, Glucocorticoid Receptor (GR) (Homo sapiens, UniProt P04150).
T1 construct: purchased Invitrogen P2893
T1 sequence (P04150 1-777): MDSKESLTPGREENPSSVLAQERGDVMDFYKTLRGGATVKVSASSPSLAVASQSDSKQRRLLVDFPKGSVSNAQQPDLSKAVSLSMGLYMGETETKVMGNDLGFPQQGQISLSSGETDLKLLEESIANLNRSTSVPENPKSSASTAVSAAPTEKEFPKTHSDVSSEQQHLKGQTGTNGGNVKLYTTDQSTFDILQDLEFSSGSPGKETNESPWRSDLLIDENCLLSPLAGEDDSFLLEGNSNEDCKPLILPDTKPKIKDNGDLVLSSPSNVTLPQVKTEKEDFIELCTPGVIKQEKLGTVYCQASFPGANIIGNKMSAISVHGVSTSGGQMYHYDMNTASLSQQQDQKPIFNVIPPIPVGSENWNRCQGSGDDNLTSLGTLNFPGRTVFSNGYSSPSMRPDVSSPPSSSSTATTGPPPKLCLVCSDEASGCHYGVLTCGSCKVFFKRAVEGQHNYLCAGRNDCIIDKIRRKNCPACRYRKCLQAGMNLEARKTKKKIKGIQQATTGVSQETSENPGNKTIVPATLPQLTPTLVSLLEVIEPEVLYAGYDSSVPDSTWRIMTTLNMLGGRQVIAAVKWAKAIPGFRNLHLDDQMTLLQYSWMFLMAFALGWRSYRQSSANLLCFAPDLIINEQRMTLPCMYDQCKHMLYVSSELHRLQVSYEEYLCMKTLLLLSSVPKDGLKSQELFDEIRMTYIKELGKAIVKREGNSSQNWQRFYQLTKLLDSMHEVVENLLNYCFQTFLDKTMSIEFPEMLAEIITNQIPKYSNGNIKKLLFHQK
Kind of assay: GR Fluorescence Polarization Assay (PolarScreen Glucocorticoid Receptor Competitor Assay, Red). The settings on record: fluorescence polarization binding ranges. Here is the method: Fluorescence polarization assays were carried out using the PolarScreen™ Glucocorticoid Receptor Competitor Assay, Red from Invitrogen (P2893). The assay buffer was prepared according to the manufacturer's protocol and used to dilute the fluorescent glucocorticoid and GR. Compounds were prepared and serial diluted 1:4 in DMSO. Compound, fluorescent glucocorticoid and GR were added in a final volume of 20 μL and incubated overnight at 4° C. Fluorescent polarization was measured on the PerkinElmer Envision®. Fluorescence polarization binding ranges measured using GR Fluorescence Polarization Assay: […]
For orientation: In fluorescence polarisation assays a small probe gives low polarisation when free and higher when bound to something large.

For the next assay, the system named is IL-6. Kind of assay: A549 Cell Assay to Measure Inflammation Markers (inhibition of IL-1β-induced IL-6). The following applies: A549 cells, read-out: A549 cell assay. Format: cell-based. As to the method: A549 Cell Assay to Measure Inflammation Markers
A549 cells were seeded (3E4 cells/well) in 96-well assay plates in culture medium (100 μL/well., F-12 K base media, supplemented with 10% FBS and 100 μ/mL-100 μg/mL Pen-Strep.) After overnight culture in an incubator set to 37° C., 4.9% CO2, and 90% humidity, media was removed from adherent cells by aspiration and replaced with 100 μL/well Assay Medium (F-12 K base media supplemented with 5% charcoal stripped calf sera and 100 U/mL-100 μg/mL Pen-Strep.) Compounds were prepared in DMSO and serial diluted (1:3, 1:4, or 1:5) with DMSO in Dilution Plate(s) to give 10 dilution points for each compound tested. Further dilution (1:250) of compound was made into assay medium and 50 μL/well diluted drug or DMSO/media control was applied to cells. After a 1 h pre-incubation in a temperature, CO2, and humidity controlled incubator, set to 37° C., 50 μL/well of 4 ng/mL IL-1β diluted in assay media, was applied to cultures. Assay plates, with a final volume of 200 μL/well and final concentrations of 0.1% DMSO and 1 ng/mL IL-1β were returned to incubator for a four h incubation period. Next, plates were spun at 183 g (1000 rpm in Beckman/Coulter Allegra 6KR centrifuge) for 10 min. Cell-free supernatant (150 μL/well) was collected and IL-6 was measured by MSD kit, following protocol of manufacturer, and using MSD SECTOR Imager 6000 instrument. Potency of compounds to inhibit IL-6 was determined using the percent reduction of measured IL-6 in wells with compound compared to control wells without drug, and relative to (100% inhibition) positive control compound of 1 μM prednisolone. Results were represented as IC50 and Emax values. To verify that viable cell numbers were similar across plate(s), and not confounding compound IC50 data interpretation, the remaining 50 μL/well of cells and media (after removal of supernatant) were used to run Cell Titer-Glo Assay per directions of manufacturer.

Like-named read-outs stand apart in the source and are kept apart here. Where only a bound is given, the exact number is not on record here.

For `CC[C@@]12CC[C@](O)(C(F)(F)F)[C@@H](O)[C@@H]1CCCc1cc3c(cnn3-c3ccc(F)cc3)cc12` (single isomer, unassigned) [Example 96], the IC50 (in assay [1]; in the assay with IL-6 (Homo sapiens)) was under 100 nM throughout.

In the case of `COC[C@@]1(O)CC[C@@]2(Cc3ncccn3)c3cc4cnn(-c5ccc(F)cc5)c4nc3CCC[C@H]2C1` [Example 158], the IC50 (in assay [1]; with IL-6) was under 100 nM throughout.

With `CC[C@]12CC[C@@](O)(COC)C[C@H]1CCCc1cc3c(cnn3-c3cccnc3)cc12` [Example 43], the values for the IC50 (in assay [1]; with IL-6) were under 100 nM and over 10000 nM, respectively.

As to `CC[C@]12CC[C@@](O)(C(F)(F)F)C=C1CCCc1cc3c(cnn3-c3ccc(F)cc3)cc12` (single isomer, unassigned) [Example 107], the results for the IC50 (in assay [1]; with IL-6 (Homo sapiens)) were under 100 nM and 100 to 1000 nM, respectively.

For the molecule `COC[C@]1(O)CC[C@]2(Cc3ncccn3)c3cc4cnn(-c5ccc(F)cc5)c4cc3CCC[C@@H]2C1` [Example 36], the IC50 in assay [1] was under 100 nM; in the assay with IL-6, over 10000 nM.

As to `CC[C@@]12C[C@@](C)(O)[C@](O)(C(F)(F)F)C[C@H]1CCCc1cc3c(cnn3-c3ccc(F)cc3)cc12` (single isomer, unassigned) [Example 117], the IC50 (in assay [1]; in the assay on IL-6 (Homo sapiens)) was under 100 nM each time.

`CC[C@@]12CC[C@](O)(COC)C[C@@H]1CCCc1cc3c(cnn3-c3ccncc3)cc12` (single isomer, unassigned) [Example 123]: the IC50 (in assay [1]; with IL-6 (Homo sapiens)) was under 100 nM in each case.

In the case of `CC[C@@]12CC(=O)[C@](O)(C(F)(F)F)C[C@H]1CCCc1cc3c(cnn3-c3ccc(F)cc3)cc12` (single isomer, unassigned) [Example 115], the IC50 (in assay [1]; in the assay on IL-6 (Homo sapiens)) was 100 to 1000 nM throughout.

As to `Cc1cc(-n2ncc3cc4c(cc32)CCC[C@H]2C[C@](C)(O)CC[C@@]42Cc2ccccn2)ccn1` [Example 60], the IC50 (in assay [1]; in the assay on IL-6) was under 100 nM each time.

As for `C#C[C@@]1(O)CC[C@@]2(CC)c3cc4cnn(-c5ccc(F)cc5)c4cc3CCC[C@@H]2C1` (single isomer, unassigned) [Example 109], the IC50 (in assay [1]; in the assay on IL-6 (Homo sapiens)) was under 100 nM throughout.

With `CC[C@@]12CC[C@](O)(C(F)(F)F)C[C@H]1CCC(=O)c1cc3c(cnn3-c3ccc(F)cc3)cc12` [Example 105, (3R,4aR,12bR)-12b-Ethyl-9-(4-fluorophenyl)-3-hydroxy-3-(trifluoromethyl)-1,2,3,4,4a,5,6,12b-octahydrobenzo[6,7]cyclohepta[1,2-f]indazol-7(9H)-one], the IC50 (in assay [1]; in the assay on IL-6 (Homo sapiens)) was under 100 nM each time.

Turning to `CC#C[C@@]1(O)CC[C@@]2(CC)c3cc4cnn(-c5ccc(F)cc5)c4cc3CCC[C@@H]2C1` [Example 111], the IC50 (in assay [1]; in the assay on IL-6) was under 100 nM in each case.

For `CC[C@@]12CC[C@](O)(C(F)(F)F)C[C@H]1CCOc1cc3c(cnn3-c3ccc(F)cc3)cc12` (single isomer, unassigned) [Example 146], the IC50 (in assay [1]; in the assay with IL-6 (Homo sapiens)) was under 100 nM each time.

Regarding `CC[C@@]12C[C@@H](O)[C@](O)(C(F)(F)F)C[C@H]1CCCc1cc3c(cnn3-c3ccc(F)cc3)cc12` (single isomer, unassigned) [Example 119], the IC50 (in assay [1]; in the assay with IL-6 (Homo sapiens)) was under 100 nM in each case.

With `CCOC[C@]1(O)CC[C@]2(Cc3ccccn3)c3cc4cnn(-c5ccc(F)cc5)c4cc3CCC[C@@H]2C1` [Example 33], the IC50 (in assay [1]; in the assay with IL-6) was under 100 nM throughout.

On to `CC[C@]12C[C@](C)(O)[C@@](O)(C(F)(F)F)C[C@@H]1CCCc1cc3c(cnn3-c3ccc(F)cc3)cc12` (single isomer, unassigned) [Example 118], for which the IC50 was under 100 nM in assay [1] and 100 to 1000 nM with IL-6 (Homo sapiens).

`O[C@]1(C(F)(F)F)CC[C@@]2(Cc3ccccn3)c3cn4cnc(-c5ccc(F)cc5)c4cc3CCC[C@@H]2C1` (racemic) [Example 166, rac-(3R,4aR,13bS)-9-(4-fluorophenyl)-13b-(pyridin-2-ylmethyl)-3-(trifluoromethyl)-2,3,4,4a,5,6,7,13b-octahydro-1H-benzo[3,4]cyclohepta[1,2-d]imidazo[1,5-a]pyridin-3-ol]: the IC50 (in assay [1]; in the assay on IL-6 (Homo sapiens)) was under 100 nM each time.

Regarding `CC[C@@]12CC[C@@](O)(CN[C@H](C)c3ccccc3)C[C@H]1CCCc1cc3c(cnn3-c3ccc(F)cc3)cc12` [Example 126, (3S,4aR,12bR)-12b-ethyl-9-(4-fluorophenyl)-3-((((R)-1-phenylethyl)amino)methyl)-1,2,3,4,4a,5,6,7,9,12b-decahydrobenzo[6,7]cyclohepta[1,2-f]indazol-3-ol], the IC50 in assay [1] was under 100 nM; in the assay with IL-6 (Homo sapiens), over 10000 nM.

For the molecule `CC[C@]12CC[C@](O)(C(F)(F)F)C[C@H]1CCCc1cc3c(cnn3-c3ccc(F)cc3)cc12` (single isomer, unassigned) [Example 2], the IC50 (in assay [1]; in the assay on IL-6 (Homo sapiens)) was under 100 nM in each case.

Take `CC(=O)NC[C@@]12CC[C@](O)(C(F)(F)F)C[C@H]1CCCc1cc3c(cnn3-c3ccc(F)cc3)cc12` (single isomer, unassigned) [Example 84]: the IC50 (in assay [1]; in the assay on IL-6 (Homo sapiens)) was under 100 nM in each case.

For `CC[C@@]12CC[C@](O)(COC)C[C@@H]1CCOc1cc3c(cnn3-c3ccnc(C(F)(F)F)c3)cc12` [Example 141], the IC50 in assay [1] is under 100 nM; in the assay on IL-6 it was 1000 to 10000 nM.

Take `O[C@@]1(C(F)(F)F)CC[C@@]2(Cc3ccccn3)c3cc4cnn(-c5ccc(F)cc5)c4nc3CCC[C@H]2C1` (racemic) [Example 155, rac-(3R,4aR,12bR)-9-(4-Fluorophenyl)-12b-(pyridin-2-ylmethyl)-3-(trifluoromethyl)-1,2,3,4,4a,5,6,7,9,12b-decahydrobenzo[3,4]cyclohepta[1,2-b]pyrazolo[4,3-e]pyridin-3-ol]: the IC50 is 100 to 1000 nM in assay [1] and over 10000 nM in the assay on IL-6 (Homo sapiens).

Consider `N#CC[C@@]1(O)CC[C@@]2(Cc3ccccn3)c3cc4cnn(-c5ccc(F)cc5)c4cc3CCC[C@H]2C1` (single isomer, unassigned) [Example 17], for which the IC50 (in assay [1]; in the assay with IL-6 (Homo sapiens)) was under 100 nM each time.

With `CC[C@]12CC[C@@](O)(COC)C[C@H]1CCCc1cc3c(cnn3-c3ccc(F)cc3)cc12` [Example 34], the IC50 in assay [1] was under 100 nM; in the assay on IL-6, over 10000 nM.

Turning to `CC[C@@]12CC[C@](O)(C(F)(F)F)C[C@H]1CCCc1nc3c(cnn3-c3ccc(F)cc3)cc12` (single isomer, unassigned) [Example 154], the IC50 (in assay [1]; in the assay with IL-6 (Homo sapiens)) was under 100 nM in each case.

Take `CC[C@@]12C[C@@H](O)[C@](O)(C(F)(F)F)C[C@@H]1CCCc1cc3c(cnn3-c3ccc(F)cc3)cc12` (single isomer, unassigned) [Example 98]: the IC50 (in assay [1]; in the assay on IL-6 (Homo sapiens)) was under 100 nM throughout.

With `CC[C@]12C[C@H](O)[C@@](O)(C(F)(F)F)C[C@H]1CCCc1cc3c(cnn3-c3ccc(F)cc3)cc12` (single isomer, unassigned) [Example 99], the IC50 (in assay [1]; with IL-6 (Homo sapiens)) was under 100 nM in each case.

Turning to `C[C@]1(O)CC[C@]2(Cc3ccccn3)c3cc4cnn(-c5ccc(F)cc5)c4cc3CCC[C@@H]2C1` (single isomer, unassigned) [Example 16], the IC50 (in assay [1]; with IL-6 (Homo sapiens)) was under 100 nM in each case.

Values taken from patent US9193744B2, “Heterocyclic nuclear hormone receptor modulators” (AbbVie Inc., priority 2012, dated 2015).
